Results taken from patent US20060078504A1, “Sustanined-release pharmaceutical composition for lung administration” (priority 2003, published 2006).

Assay: Test Example 1: serum theophylline pharmacokinetics after intratracheal administration of solutions A to D to rats
Assay type: in vivo, Wistar male rats
Details: solution A, intratracheal vs intravenous (femoral vein), rat, FIG. 1
Procedure: Wistar male rats (body weight about 220 g) fasted for about 18 hours were used as experimental animals. […] That is, the rats were anesthetized with pentobarbital (about 32 mg/kg) and secured on their back on animal boards, the tracheas were exposed through a longitudinal incision. A section of polyethylene tube (i.d. 1.5 mm, o.d. 2.3 mm) 2.5 cm in length was inserted through the tracheal incision for a distance of 0.6 cm between the forth and fifth tracheal rings caudal to the thyroid cartilage. Each of one hundred microliters of drug solutions A-D was drawn into a glass microsyringe, and then rat was maintained at an angle of 80°. The tip of syringe was inserted through the polyethylene tube to 1-2 mm above the bifurcation of the trachea. Then, the solution was injected over a period of 1-2 sec. About 45 sec after the administration, the rat was positioned at an angle of 10° and the incision in the skin was then closed with suture.
The theophylline concentrations in the obtained serum were measured by HPLC.

Cn1c(=O)c2[nH]cnc2n(C)c1=O [theophylline]
pulmonary absorption compared with intravenous administration (in words): as quick and effective as achieved by intravenous administration
